Reference: patent US20080312192A1, “Diaryl Urea Derivatives in the Treatment of Protein Kinase Dependent Diseases” (priority 2003, published 2008)

Experiments:
[1] = target: T1, RET (Homo sapiens, UniProt P07949); assay: RET kinase inhibition (33P incorporation into poly(Glu,Tyr), GST-wtRET or GST-RET-Men2B); format: biochemical
T1 construct: expresses the amino acid region 658-1072 (Swiss prot No. Q9BTB0); made in house; host or cells: Sf9 insect cells (baculovirus, vector pFB-GSTX3)
T1 sequence (P07949 658-1072 isoform P07949-2): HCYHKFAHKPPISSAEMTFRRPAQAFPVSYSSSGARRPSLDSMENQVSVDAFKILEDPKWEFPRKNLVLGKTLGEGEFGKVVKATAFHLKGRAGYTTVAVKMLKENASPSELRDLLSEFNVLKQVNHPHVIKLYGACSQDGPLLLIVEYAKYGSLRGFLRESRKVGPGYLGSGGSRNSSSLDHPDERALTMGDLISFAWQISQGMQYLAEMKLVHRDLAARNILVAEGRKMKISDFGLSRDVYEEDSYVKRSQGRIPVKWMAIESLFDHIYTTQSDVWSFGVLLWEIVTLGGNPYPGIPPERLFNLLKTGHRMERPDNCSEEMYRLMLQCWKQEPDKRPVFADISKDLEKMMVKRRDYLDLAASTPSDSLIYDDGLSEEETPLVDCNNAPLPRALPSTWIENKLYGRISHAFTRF
Experimental: RET kinase inhibition is determined as follows:
The coding sequence for the cytoplasmic domain of wtRET is amplified by PCR from a cDNA library using specific primers. RET-Men2B is generated through site-directed mutagenesis resulting in the M918T mutation. The amplified DNA fragments and the pFB-GSTX3 vector are made compatible for ligation by digestion with SalI and KpnI. Ligation of these DNA fragments results in the baculovirus donor plasmids […] and pFB-GX3-RET-Men2B, respectively.
Production of virus: The baculovirus donor plasmids containing the kinase domains are transfected into the DH10Bac cell line (GIBCO) and the transfected cells are plated on selective agar plates. Colonies without insertion of the fusion sequence into the viral genome (carried by the bacteria) are blue. Single, white colonies are picked and viral DNA (bacmid) is isolated from the bacteria by standard plasmid purification procedures. Sf9 cells or Sf21 cells (American Type Culture Collection) are then transfected in 25 cm^2 flasks with the viral DNA using Cellfectin reagent.
Protein expression in Sf9 cells: Virus-containing media is collected from the transfected cell culture and used for infection to increase its titer. Virus-containing media obtained after two rounds of infection is used for large-scale protein expression. For large-scale protein expression 100 cm^2 round tissue culture plates are seeded with 5×10^7 cells/plate and infected with 1 mL of virus-containing media (approximately 5 MOIs). After 3 days, the cells are scraped off the plate and centrifuged at 500 rpm for 5 minutes. Cell pellets from 10-20, 100 cm^2 plates are re-suspended in 50 mL of ice-cold lysis buffer (25 mM Tris-HCl, pH 7.5, 2 mM EDTA, 1% NP-40, 1 mM DTT, 1 mM PMSF). The cells are stirred on ice for 15 minutes and then centrifuged at 5,000 rpms for 20 minutes.
(§1) Purification of GST-tagged proteins: The centrifuged cell lysate is loaded onto a 2 mL glutathione-sepharose column (Pharmacia) and washed 3× with 10 mL of 25 mM Tris-HCl, pH 7.5, 2 mM EDTA, 1 mM DTT, 200 mM NaCl. The GST-tagged proteins are then eluted by 10 applications (1 mL each) of 25 mM Tris-HCl, pH 7.5, 10 mM reduced-glutathione, 100 mM NaCl, 1 mM DTT, 10% glycerol and stored at −70° C.
Measure of enzyme activity: Tyrosine protein kinase assays with either purified GST-wtRET or GST-RET-Men2B protein are carried out in a final volume of 30 μL containing 15 ng of either GST-RET or GST-RET-Men2B protein, 20 mM Tris-HCl, pH 7.5, 1 mM MnCl2, 10 mM MgCl2, 1 mM DTT, 3 μg/mL poly(Glu, Tyr) 4:1, 1% DMSO, 2.0 μM ATP (γ-[^33P]-ATP 0.1 μCi). The activity is assayed in the presence or absence of inhibitors, by measuring the incorporation of ^33P from [γ^33P] ATP into poly(Glu, Tyr) 4:1. […] Subsequently, 40 μL of the reaction mixture are transferred onto Immobilon-PVDF membrane (Millipore) previously soaked for 5 minutes with methanol, rinsed with water, then soaked for 5 minutes with 0.5% H3PO4 and mounted on vacuum manifold with disconnected vacuum source. After spotting all samples, vacuum is connected and each well rinsed with 200 μL 0.5% H3PO4. Membranes are removed and washed 4× on a shaker with 1.0% H3PO4, once with ethanol. Membranes are counted after drying at ambient temperature, mounting in Packard TopCount 96-well frame, and addition of 10 μl/well of Microscint™ (Packard). […] One unit of protein kinase activity is defined as 1 nmole of ^33P transferred from [γ^33P] ATP to the substrate protein/minute/mg of protein at 37° C.

[2] = system: D835Y-Ba/F3; conditions: Mus musculus, BaF3, 48 h, read-out: Inhibition of Flt-3 dependent Proliferation (ED50) D835-mutant
Experimental: (§2) Inhibition of Proliferation in Flt-3 Dependent Ba/F3 Cells:
(§3) The compound's potential to penetrate cell membranes and exert antiproliferative effects is determined in Ba/F3 cells dependent on mutated [ITD or D835Y; Gilliland and Griffin, Blood, Vol. 100, No. 5, 153242 (2002)] Flt-3 receptor kinases.
(§4) A modified protocol of the YO-PRO-1 assay in a 96-well format is based on the use of the wild-type IL-3-dependent hematopoietic cell line Ba/F3 (DSMZ, Braunschweig, Germany) and the mutant sub-lines ITD-Ba/F3 or D835Y-Ba/F3 [Weisberg et al., Cancer Cell 1 (5):433-43 (2000)] expressing constitutively activating Flt-3 kinases.
(§5) ITD-FLT3- or D835Y-FLT3-Ba/F3 cells are diluted in fresh medium to a final concentration of 3×10^5 cells per ml and 50 μl aliquots seeded into 96-well plates (1.5×10^4 cells per well). Subsequently, 50 μl 2× compound solutions were added and cells incubated for 48 h. The anti-proliferative and apoptotic activity of a compound is initially tested in triplicates at 10 μM, 1 μM and 0.1 μM concentration on both cell lines. Cells treated with DMSO alone (added to a final concentration of 0.1%) always serves as a control. In addition, a plate blank value is routinely determined in a well containing only 100 μl of medium and no cells.
(§6) To further profile a compound an ED50 determination is done starting at 10 μM or 3 μM of the compound of interest. From those concentrations, stepwise nine dilutions are prepared reaching the final concentrations of 2 μM and 0.5 μM, respectively.
(§7) Activity of inhibitors is assessed by the YO-PRO-1 assay as previously described in [Idziorek et al., J. Immunol. […] Briefly, after the treatment period of 48 h, a 25 μl aliquot of a solution containing 100 mM sodium citrate, pH 4.0, 134 mM sodium chloride and 12.5 μM YO-PRO-1 dye (YO-PRO-1 iodide, #Y3603, Molecular Probes) is directly added to the 100 μl medium in the wells of the 96-well plate. That results in a final dye concentration of 2.5 μM, the plate is then incubated for 10 min at ambient temperature in the dark. The uptake of the YO-PRO-1 dye into cells is assessed by a first measurement using a Cytofluor II 96-well plate reader (PerSeptive Biosystems) with the following settings: Excitation (nm) 485120 and Emission (nm) 530/25, Gain 75. After this first reading, 25 μl of lysis buffer consisting of 20 mM sodium citrate, pH 4.0, 26.8 mM sodium chloride, 0.4% NP40, 20 mM EDTA and 20 mM is added to each well. Cell lysis is completed within 60 min at room temperature and total amount of YO-PRO-1 bound to DNA is determined by a second measurement using the Cytofluor II 96-well reader with the identical setting as described above.

[3] = system: ITD-Ba/F3; conditions: Mus musculus, BaF3, 48 h, read-out: Inhibition of Flt-3 dependent Proliferation (ED50) ITD-mutant
Experimental: as §2, §3, §4, §5, §6, §7

[4] = target: T2, Flt-3 (Homo sapiens, UniProt P36888); assay: Flt-3 kinase inhibition (GST-Flt-3, 33P incorporation into poly(Glu,Tyr)); format: biochemical
T2 construct: amino acids 563-993 of the cytoplasmic kinase domain of human Flt-3; made in house; host or cells: Sf9 insect cells (baculovirus, vector pFbacG01)
T2 sequence (P36888 563-993): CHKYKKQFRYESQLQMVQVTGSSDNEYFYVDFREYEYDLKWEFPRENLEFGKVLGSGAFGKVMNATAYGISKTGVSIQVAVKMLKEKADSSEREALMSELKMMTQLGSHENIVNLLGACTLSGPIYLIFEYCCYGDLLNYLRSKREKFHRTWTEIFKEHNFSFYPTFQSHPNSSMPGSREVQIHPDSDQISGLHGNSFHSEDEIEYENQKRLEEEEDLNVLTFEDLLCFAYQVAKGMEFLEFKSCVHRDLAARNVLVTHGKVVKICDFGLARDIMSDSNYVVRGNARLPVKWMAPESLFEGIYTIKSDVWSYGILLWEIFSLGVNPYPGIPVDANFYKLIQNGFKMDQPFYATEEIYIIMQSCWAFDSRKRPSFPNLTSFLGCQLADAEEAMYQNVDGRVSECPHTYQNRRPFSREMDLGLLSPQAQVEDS
Experimental: Flt-3 kinase inhibition is determined as follows: The baculovirus donor vector pFbacG01 (GIBCO) is used to generate a recombinant baculovirus expressing the amino acid region amino acids 563-993 of the cytoplasmic kinase domain of human Flt-3. The coding sequence for the cytoplasmic domain of Flt-3 is amplified by PCR from human c-DNA libraries (Clontech). The amplified DNA fragments and the pFbacG01 vector are made compatible for ligation by digestion with BamHI and HindIII. Ligation of these DNA fragments results in the baculovirus donor plasmid pFbacG01-Flt-3. The production of the viruses, the expression of proteins in Sf9 cells and the purification of the GST-fused proteins are performed as follows:
Production of virus: The baculovirus donor plasmid (pFbacG01-Flt-3) containing the Flt-3 kinase domain is transfected into the DH10Bac cell line (GIBCO) and the transfected cells are plated on selective agar plates. Colonies without insertion of the fusion sequence into the viral genome (carried by the bacteria) are blue. Single white colonies are picked and viral DNA (bacmid) is isolated from the bacteria by standard plasmid purification procedures. Sf9 or Sf21 cells (American Type Culture Collection) are then transfected in flasks with the viral DNA using Cellfectin reagent.
Protein expression in Sf9 cells: Virus containing media is collected from the transfected cell culture and used for infection to increase its titre. Virus containing media obtained after two rounds of infection is used for large-scale protein expression. For large-scale protein expression 100 cm^2 round tissue culture plates are seeded with 5×10^7 cells/plate and infected with 1 mL of virus-containing media (approx. 5 MOIs). After 3 days the cells are scraped off the plate and centrifuged at 500 rpm for 5 min. Cell pellets from 10-20, 100 cm^2 plates are resuspended in 50 mL of ice-cold lysis buffer (25 mM Tris-HCl, pH 7.5, 2 mM EDTA-1% NP-40. 1 mM DTT, 1 mM PMSF). The cells are stirred on ice for 15 min and then centrifuged at 5000 rpms for 20 min.
as §1, with “protein:” for “proteins:”, “three times” for “3×”, “protein is” for “proteins are”, “Glycerol” for “glycerol”
Measurement of enzyme activity: Tyrosine protein kinase assays with purified GST-Flt-3 protein are carried out in a final volume of 30 μL containing 200-1800 ng of enzyme protein (depending on the specific activity), 20 mM Tris-HCl, pH 7.6, 3 mM MnCl2, 3 mM MgCl2, 1 mM DTT, 10 μM Na3VO4, 3 μg/mL poly(Glu, Tyr) 4:1, 1% DMSO, 8.0 μM ATP and 0.1 μCi [γ^33 P] ATP. The activity is assayed in the presence or absence of inhibitors, by measuring the incorporation of ^33P from [γ^33P] ATP into the poly(Glu,Tyr) substrate. The assay (30 μL) is carried out in 96-well plates at ambient temperature for 20 min and terminated by the addition of 20 μL of 125 mM EDTA. Subsequently, 40 μL of the reaction mixture is transferred onto Immobilon-PVDF membrane (Millipore, Bedford, Mass., USA) previously soaked for 5 min with methanol, rinsed with water, then soaked for 5 min with 0.5% H3PO4 and mounted on vacuum manifold with disconnected vacuum source. After spotting all samples, vacuum is connected and each well rinsed with 200 μL 0.5% H3PO4. Membranes are removed and washed 4× on a shaker with 1.0% H3PO4, once with ethanol. Membranes are counted after drying at ambient temperature, mounting in Packard TopCount 96-well frame, and addition of 10 μL/well of Microscint™ (Packard). IC50 values are calculated by linear regression analysis of the percentage inhibition of each compound in duplicate, at four concentrations (usually 0.01, 0.1, 1 and 10 μM). One unit of protein kinase activity is defined as 1 nmole of ^33P transferred from [γ3P] […]

IC50 [1] [nM] | EC50 [2] [nM] | EC50 [3] [nM] | melting point [°C] | IC50 [4] [nM] | Structure (SMILES)
110 |  |  |  |  | CNc1cc(Oc2ccc(NC(=O)Nc3cc(CN(C)C)cc(C(F)(F)F)c3)cc2)ncn1 [1-(3-Dimethylaminomethyl-5-trifluoromethyl-phenyl)-3-[4-(6-methylamino-pyrimidin-4-yloxy)-phenyl]-urea]
260 |  |  |  |  | CN1CCN(Cc2cc(NC(=O)Nc3ccc(Oc4cc(N)ncn4)cc3)cc(C(F)(F)F)c2)CC1 [1-[4-(6-Amino-pyrimidin-4-yloxy)-phenyl]-3-[3-(4-methyl-piperazin-1-ylmethyl)-5-trifluoromethyl-phenyl]-urea]
590 |  |  |  |  | CNc1cc(Oc2ccc(NC(=O)Nc3cc(CN4CCN(C)CC4)cc(C(F)(F)F)c3)cc2)ncn1 [1-[4-(6-Methylamino-pyrimidin-4-yloxy)-phenyl]-3-[3-(4-methyl-piperazin-1-ylmethyl)-5-trifluoromethyl-phenyl]-urea]
 | 3.9 | < 0.2 |  |  | CNc1nccc(Oc2ccc(NC(=O)Nc3ccc(CN4CCN(C(C)C)CC4)c(C(F)(F)F)c3)cc2)n1 [Example 46, N-[4-(2-Methylamino-pyrimidin-4-yloxy)-phenyl]-N′-[4-(4-isopropylpiperazin-1-ylmethyl)-3-trifluoromethyl-phenyl]-urea]
 | 11.7 | 0.1 | 257 to 258 |  | CNc1nccc(Oc2ccc(NC(=O)Nc3ccc(CN4CCN(C(C)(C)C)CC4)c(C(F)(F)F)c3)cc2)n1 [Example 49, N-[4-(2-Methylamino-pyrimidin-4-yloxy)-phenyl]-N′-[4-(4-tert-butylpiperazinyl-methyl)-3-trifluoromethyl-phenyl]-urea]
 |  |  | 118 to 123 | 160 | CNc1cc(Oc2ccc(NC(=O)Nc3ccc(-c4cccnc4)c(C(F)(F)F)c3)cc2)ncn1 [Example 62, 1-[4-(6-Methylamino-pyrimidin-4-yloxy)-phenyl]-3-(4-pyridin-3-yl-3-trifluoromethyl-phenyl)-urea]
 |  |  | 127 to 130 | 140 | CNc1cc(Oc2ccc(NC(=O)Nc3ccc(-c4ccncc4)c(C(F)(F)F)c3)cc2)ncn1 [Example 63, 1-[4-(6-Methylamino-pyrimidin-4-yloxy)-phenyl]-3-(4-pyridin-4-yl-3-trifluoromethyl-phenyl)-urea]
 |  |  | 106 to 109 | 340 | CNc1cc(Oc2ccc(NC(=O)Nc3ccc(-c4cccc(C)n4)c(C(F)(F)F)c3)cc2)ncn1 [Example 64, 1-[4-(6-Methylamino-pyrimidin-4-yloxy)-phenyl]-3-[4-(6-methyl-pyridin-2-yl)-3-trifluoromethyl-phenyl]-urea]
